Assay: molar heat capacity at constant pressure
Conditions: 101.33 kPa, Crystal, Vacuum adiabatic calorimetry

O=C(CO)[C@@H](O)[C@@H](O)[C@H](O)CO [D-(-)-tagatose]
Conditions | molar heat capacity at constant pressure [J/K/mol]
10 K | 0.94
14.02 K | 2.674
14.41 K | 2.87
14.81 K | 3.123
15.25 K | 3.307
15.73 K | 3.601
16.23 K | 3.917
16.72 K | 4.241
17.21 K | 4.591
17.74 K | 4.922
18.26 K | 5.33
18.79 K | 5.733
19.32 K | 6.103
19.88 K | 6.523
20 K | 6.61
20.46 K | 6.946
21.02 K | 7.413
21.59 K | 7.933
22.17 K | 8.327
22.74 K | 8.872
23.29 K | 9.326
23.86 K | 9.837
24.43 K | 10.34
24.96 K | 10.79
25.5 K | 11.35
26.05 K | 11.75
26.63 K | 12.36
27.21 K | 12.84
27.8 K | 13.39
28.43 K | 14.04
29.08 K | 14.61
29.7 K | 15.2
30 K | 15.48
30.32 K | 15.75
30.93 K | 16.36
31.54 K | 16.95
32.18 K | 17.49
32.85 K | 18.2
33.51 K | 18.79
34.17 K | 19.45
34.85 K | 20.14
35.56 K | 20.8
36.25 K | 21.42
36.92 K | 22.12
37.6 K | 22.72
38.32 K | 23.45
39.06 K | 24.19
39.8 K | 24.86
40 K | 25.07
40.56 K | 25.59
41.34 K | 26.39
42.12 K | 27.17
42.9 K | 27.84
43.73 K | 28.66
44.59 K | 29.45
45.47 K | 30.31
46.33 K | 31.15
47.17 K | 31.93
48.01 K | 32.72
48.86 K | 33.49
49.73 K | 34.49
50 K | 34.58
50.59 K | 35.1
51.44 K | 35.9
52.28 K | 36.7
53.12 K | 37.43
53.94 K | 38.19
54.73 K | 38.96
55.51 K | 39.6
56.29 K | 40.34
57.09 K | 41.06
57.89 K | 41.8
58.7 K | 42.51
59.51 K | 43.28
60 K | 43.72
60.35 K | 44.06
61.19 K | 44.77
62.02 K | 45.55
62.84 K | 46.28
63.66 K | 46.99
64.47 K | 47.71
65.28 K | 48.44
66.09 K | 49.12
66.9 K | 49.84
67.72 K | 50.53
68.52 K | 51.3
69.3 K | 51.99
70 K | 52.55
70.08 K | 52.63
70.85 K | 53.29
71.66 K | 54
72.51 K | 54.75
73.34 K | 55.43
74.17 K | 56.15
74.99 K | 56.78
75.84 K | 57.55
76.73 K | 58.37
77.61 K | 59.05
78.48 K | 59.83
79.34 K | 60.58
80 K | 61.11
80.24 K | 61.32
81.18 K | 62.13
82.13 K | 62.93
83.07 K | 63.68
84.01 K | 64.47
85 K | 65.34
86.03 K | 66.11
87.06 K | 66.91
88.1 K | 67.79
89.12 K | 68.69
90 K | 69.42
90.18 K | 69.57
91.27 K | 70.49
92.35 K | 71.33
93.42 K | 72.22
94.47 K | 73.05
95.56 K | 73.96
96.68 K | 74.84
97.79 K | 75.75
98.88 K | 76.69
99.96 K | 77.46
100 K | 77.52
101.1 K | 78.37
102.28 K | 79.32
103.46 K | 80.27
104.64 K | 81.16
105.83 K | 82.14
107.05 K | 83.09
108.3 K | 84.09
109.54 K | 85.07
110 K | 85.43
